Experimental data published in patent US20260083750A1, “SMALL MOLECULE INHIBITORS OF KRAS PROTEINS” (MERCK SHARP & DOHME LLC, priority 2022, published 2026).
pIC50: −log10 of the molar value.

Legend:
NRAS = NRAS (Homo sapiens, UniProt P01111); experiment: SOS-catalyzed nucleotide exchange assay (Procedure A, TR-FRET); format: biochemical; conditions: 60 min preincubation, SOS + GTP, read-out: NRAS GNE IC50
Description: (§1) Procedure for SOS-Catalyzed Nucleotide Exchange Assay for KRAS-G12C/D/V, G13D, HRAS, and NRAS (Procedure A)
(§2) Recombinant KRAS-G12C protein used in this assay has an additional triple mutation (C51S/C80L/C118S), whereas KRAS-G12D/V, G13D, HRAS and NRAS are in context of their WT protein sequence background. Specifically, the SOS-catalyzed nucleotide exchange assay utilizes a preformed TR-FRET complex containing a specific biotinylated RAS protein (KRAS-G12C/V/D, G13D, HRAS, NRAS; described above) with Bodipy-GDP, and Terbium-streptavidin. Compounds are preincubated with this complex for 60 minutes. Subsequently, recombinant human SOS protein and unlabeled GTP are added to initiate the exchange reaction. Small molecule inhibitors stabilize the Bodipy-GDP complex whereas the untreated protein rapidly exchanges Bodipy-GDP for unlabeled GTP resulting in reduced TR-FRET signal.
(§3) To assemble the preformed TR-FRET complexes, each biotinylated RAS protein is diluted to 2 μM in an EDTA Buffer (20 mM HEPES pH 7.5, 50 mM sodium chloride, 10 mM EDTA, and 0.01% Tween) and incubated at room temperature for one hour. This mixture is then further diluted to 90 nM in an Assay Buffer (20 mM HEPES pH 7.5, 150 mM sodium chloride, 10 mM magnesium chloride, and 0.005% Tween) containing 15 nM of Terbium-Streptavidin (Invitrogen, catalog #PV3577) and 900 nM of Bodipy-GDP (Invitrogen, catalog #G22360) and incubated at room temperature for six hours. It should be noted that this preformed TR-FRET complex for each of the RAS protein were made ahead of time, aliquoted and stored at −80° C. until the day of the experiment.
(§4) Each test compound (10 mM stock in DMSO) is diluted in DMSO to make a final-10-point, 3-fold dilution and is acoustically dispensed into a 384-well assay plate (Corning, catalog #3820) using an Echo 550 (Labcyte). Each well of the assay plate receives 3 μL of a specific 3× RAS preformed TR-FRET complex and 3 μL of Assay Buffer and is incubated at room temperature for 60 minutes (preincubation time). Each well then receives 3 μL of 3× recombinant human SOS protein and GTP (Sigma, G8877) in Assay Buffer and is incubated at room temperature for 30 minutes (G13D), 60 minutes (G12C/D, H/NRAS) or 90 minutes for G12V. The final reaction in each well of […] consists of 3 mM GTP, specific Ras and SOS proteins in the following concentrations: KRAS-G12C/SOS=3 nM/40 nM, KRAS-G12D/SOS=1 nM/40 nM, KRAS-G12V/SOS=1.25 nM/160 nM, KRAS-G13D/SOS=1.25 nM/0 nM, HRAS & NRAS=1.25 nM/40 nM.
(§5) The time-resolved fluorescence resonance energy transfer (TR-FRET) signal is measured on an Envision (PerkinElmer) plate reader: Excitation filter=340 nm; emission1=495 nm; emission2=520 nm; dichroic mirror=D400/D505; delay time=[…]. The signal of each well is determined as the ratio of the emission at 520 nm to that at 495 nm. Percent effect of each well is determined after normalization to control wells containing DMSO (no effect) or a saturating concentration of inhibitor (max effect). The apparent effect as a function of compound concentration is fit to a four-parameter logistic equation.

HRAS = HRAS (Homo sapiens, UniProt P01112); experiment: as above; format: biochemical; conditions: 60 min preincubation, SOS + GTP, read-out: HRAS GNE IC50
HRAS, sequence (P01112 with tags, fused parts or gaps): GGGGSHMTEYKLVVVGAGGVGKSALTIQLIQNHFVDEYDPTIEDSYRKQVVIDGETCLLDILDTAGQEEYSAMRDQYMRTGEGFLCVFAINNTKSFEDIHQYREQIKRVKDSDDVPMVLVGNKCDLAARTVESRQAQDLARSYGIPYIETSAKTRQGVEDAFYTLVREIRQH
Description: as §1, §2, §3, §4, §5

KRAS-G13D = biological target: T1, KRAS-G13D (Homo sapiens, UniProt P01116, G13D); experiment: as above; format: biochemical; conditions: 60 min preincubation, GTP, read-out: KRAS G13D GNE IC50
T1 construct: N-terminal biotin-acceptor peptide […]
T1 sequence (P01116 with tags, fused parts or gaps isoform P01116-2 G13D): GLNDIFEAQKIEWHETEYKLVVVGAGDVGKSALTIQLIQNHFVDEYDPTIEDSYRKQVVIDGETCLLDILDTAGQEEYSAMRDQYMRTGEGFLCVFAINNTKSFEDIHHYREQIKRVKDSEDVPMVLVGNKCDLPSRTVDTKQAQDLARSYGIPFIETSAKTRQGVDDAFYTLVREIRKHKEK
Description: as §1, §2, §3, §4
as §5, with “Percent effect of each well is determined after normalization to control wells containing DMSO (no effect) or a saturating concentration of inhibitor (max effect).” left out

KRAS-G12D = biological target: T2, KRAS-G12D (Homo sapiens, UniProt P01116, G12D); experiment: as above; format: biochemical; conditions: 60 min preincubation, SOS + GTP, read-out: KRAS G12D GNE IC50
T2 construct: N-terminal biotin-acceptor peptide […]
T2 sequence (P01116 with tags, fused parts or gaps isoform P01116-2 G12D): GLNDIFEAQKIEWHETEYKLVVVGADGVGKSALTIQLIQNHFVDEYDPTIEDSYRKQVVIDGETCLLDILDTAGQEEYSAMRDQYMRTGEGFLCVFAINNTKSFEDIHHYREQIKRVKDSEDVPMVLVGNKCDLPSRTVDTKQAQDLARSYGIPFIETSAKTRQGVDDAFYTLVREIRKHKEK
Description: as §1, §2, §3, §4
as §5, with “Percent effect of each well is determined after normalization to control wells containing DMSO (no effect) or a saturating concentration of inhibitor (max effect).” left out

KRAS-G12V = biological target: T3, KRAS-G12V (Homo sapiens, UniProt P01116, G12V); experiment: as above; format: biochemical; conditions: 60 min preincubation, SOS + GTP, read-out: KRAS G12V GNE IC50
T3 construct: N-terminal biotin-acceptor peptide […]
T3 sequence (P01116 with tags, fused parts or gaps isoform P01116-2 G12V): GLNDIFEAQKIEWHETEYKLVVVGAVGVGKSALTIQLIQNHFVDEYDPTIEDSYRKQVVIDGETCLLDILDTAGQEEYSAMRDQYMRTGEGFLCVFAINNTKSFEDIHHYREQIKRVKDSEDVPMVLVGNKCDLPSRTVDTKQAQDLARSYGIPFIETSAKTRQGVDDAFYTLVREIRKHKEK
Description: as §1, §2, §3, §4
as §5, with “Percent effect of each well is determined after normalization to control wells containing DMSO (no effect) or a saturating concentration of inhibitor (max effect).” left out

[1] = biological target: T4, KRAS-G12C (C51S/C80L/C118S) (Homo sapiens, UniProt P01116, C118S/C51S/C80L/G12C); experiment: as above; format: biochemical; conditions: 60 min preincubation, SOS + GTP, read-out: KRAS G12C GNE IC50
T4 construct: N-terminal biotin-acceptor peptide […]
T4 sequence (P01116 with tags, fused parts or gaps isoform P01116-2 G12C/C51S/C80L/C118S): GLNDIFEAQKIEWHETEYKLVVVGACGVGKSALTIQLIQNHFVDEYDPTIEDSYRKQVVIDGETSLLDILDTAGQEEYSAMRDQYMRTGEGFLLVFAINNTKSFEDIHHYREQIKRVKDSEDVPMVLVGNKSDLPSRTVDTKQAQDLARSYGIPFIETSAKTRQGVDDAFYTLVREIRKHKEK
Description: as §1, §2, §3, §4
as §5, with “Percent effect of each well is determined after normalization to control wells containing DMSO (no effect) or a saturating concentration of inhibitor (max effect).” left out

[2] = test system: PANC08.13 cells (homozygous KRAS-G12D activating mutation); experiment: Cellular phospho-ERK assay in G12D cell line; format: cell-based; conditions: Homo sapiens, PANC-08-13, 2 hours compound incubation, ratio of p-ERK vs. total ERK, read-out: PANC 0813 pERK IC50
Description: Procedure for Cellular Phospho-ERK Assay in G12D and G12V Cell Lines
PANC08.13 cells (ATCC® CRL-2551™), containing homozygous KRAS-G12D activating mutation, were cultured in growth medium made of RPMI1640-GlutaMAX™—I (ThermoFisher Scientific 61870) containing 15% heat inactivated fetal bovine serum (ThermoFisher Scientific 10091148)). SW620 cells (ATCC® […]), containing homozygous KRAS-G12V activating mutation, were cultured in growth medium that contains RPMI 1640-GlutaMAX™—I (ThermoFisher Scientific 61870) containing 10% heat inactivated fetal bovine serum (ThermoFisher Scientific 10091148).
Cells for the assay were harvested in growth medium after TrypLE (ThermoFisher scientific 12604021) digestion and were seeded in a 384-well collagen coated cell culture plate (Corning 356702) at a density of 10,000-15,000 cells/20 uL/well, and incubated at 37° C., 5% CO2 overnight. The compound (with 10 mM stock concentration) dose-response titrations were prepared [30 μM final ERK detection assay concentration and 1:3 dilutions, 10-point dose response] and appropriate amounts (270 nL) of test compounds were dispensed in a 384-well intermediate plate using an Echo 550 liquid handler. 30 uL/well of RPMI medium 1640-GlutaMAX™—I was added to the intermediate plate and the contents of the intermediate plate (10 uL/well) were then transferred to the 384-well collagen coated cell culture plate, which was incubated at 37° C., 5% CO2 for 2 hours. After removal of medium from the collagen coated cell culture plate, cells were lysed in lysis buffer from Alpha SureFire® Ultra™ Multiplex p-ERK and total ERK assay kit (PerkinElmer MPSU-PTERK) containing Halt™ Protease and Phosphatase inhibitor cocktail (ThermoFisher Scientific 78446) at room temperature with constant shaking at 300 rpm for 30 minutes. The cell lysates were then transferred to an OptiPlate-384 plate (PerkinElmer 6005620), and the phosphorylation of ERK (p-ERK) and total ERK levels were detected by Alpha SureFire® Ultra™ Multiplex p-EEK kit and total ERK assay kit (PerkinElmer MPSU-PTERK) following the manufacturer's protocol. Assay plates were read on a EnVision Multimode Plate Reader (PerkinElmer), and the ratio of p-ERK vs. total ERK in each well was used as the final readout. Dose response curves were analyzed using a 4-parameter logistic model to calculate IC50 values using Spotfire software.

NRAS, sequence (P01111 with tags, fused parts or gaps): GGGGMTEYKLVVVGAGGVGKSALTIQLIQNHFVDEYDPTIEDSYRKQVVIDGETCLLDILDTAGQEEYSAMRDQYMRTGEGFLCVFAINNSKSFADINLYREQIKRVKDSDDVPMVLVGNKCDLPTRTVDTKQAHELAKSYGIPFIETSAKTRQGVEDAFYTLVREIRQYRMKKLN

N#Cc1c(N)sc2c(F)ccc(-c3c(C(F)(F)F)cc4c(N5CCCOCC5)nc(OC[C@@]56CCCN5C[C@H](F)C6)nc4c3F)c12 (single isomer, unassigned) [Ex. 35]
pIC50 (NRAS): < 4.96
pIC50 (HRAS): 5.93
pIC50 (KRAS-G13D): 8.95
pIC50 (KRAS-G12D): 8.63
pIC50 (KRAS-G12V): 8.91
pIC50 [1]: 8.26
pIC50 [2]: 7.91

N#Cc1c(N)sc2c(F)ccc(-c3c(Cl)cc4c(N5CCCOCC5)nc(OC[C@]5(CO)CC5(F)F)nc4c3F)c12 [Ex. 32, 2-amino-4-(6-chloro-2-(((R)-2,2-difluoro-1-(hydroxymethyl)cyclopropyl)methoxy)-8-fluoro-4-(1,4-oxazepan-4-yl)quinazolin-7-yl)-7-fluorobenzo[b]thiophene-3-carbonitrile]
pIC50 (NRAS): < 4.96
pIC50 (HRAS): < 4.96
pIC50 (KRAS-G13D): 6.10
pIC50 (KRAS-G12V): 5.46
pIC50 [1]: 6.05

N#Cc1c(N)sc2c(F)ccc(-c3c(Br)cc4c(N5C6COCC5C6)nc(OC[C@@]56CCCN5C[C@H](F)C6)nc4c3F)c12 [Ex. 36, 4-(4-(3-oxa-6-azabicyclo[3.1.1]heptan-6-yl)-6-bromo-8-fluoro-2-(((2R,7aS)-2-fluorotetrahydro-1H-pyrrolizin-7a(5H)-yl)methoxy)quinazolin-7-yl)-2-amino-7-fluorobenzo[b]thiophene-3-carbonitrile]
pIC50 (NRAS): < 4.96
pIC50 (HRAS): < 4.96
pIC50 (KRAS-G13D): 7.70
pIC50 (KRAS-G12D): 8.03
pIC50 [1]: 7.43
pIC50 [2]: 6.99

Cc1cc(N)nc(-c2c(F)cc3c(N4CC[C@@H]5[C@@H](C#N)[C@@H]5CC4)nc(OC[C@@]45CCCN4C[C@H](F)C5)nc3c2F)c1C(F)(F)F [Ex. 45, (1R,7S,8S)-4-(7-(6-amino-4-methyl-3-(trifluoromethyl)pyridin-2-yl)-6,8-difluoro-2-(((2R,7aS)-2-fluorotetrahydro-1H-pyrrolizin-7a(5H)-yl)methoxy)quinazolin-4-yl)-4-azabicyclo[5.1.0]octane-8-carbonitrile]
pIC50 (NRAS): < 4.96
pIC50 (HRAS): < 4.96
pIC50 (KRAS-G13D): ≤ 4.96
pIC50 (KRAS-G12D): 5.35
pIC50 (KRAS-G12V): 5.83
pIC50 [1]: 5.76

COCC1CCOCCN1c1nc(OC[C@@]23CCCN2C[C@H](F)C3)nc2c(F)c(-c3ccc(F)c4sc(N)c(C#N)c34)c(Cl)cc12 (stereo partly drawn) [compound 16, 2-amino-4-(6-chloro-8-fluoro-2-(((2R,7aS)-2-fluorotetrahydro-1H-pyrrolizin-7a(5H)-yl)methoxy)-4-(5-(methoxymethyl)-1,4-oxazepan-4-yl)quinazolin-7-yl)-7-fluorobenzo[b]thio-phene-3-carbonitrile]
pIC50 (NRAS): < 4.96
pIC50 (HRAS): < 4.96
pIC50 (KRAS-G13D): 8.00
pIC50 (KRAS-G12D): 7.60
pIC50 (KRAS-G12V): 8.02
pIC50 [1]: 7.83
pIC50 [2]: 6.56

CC1(NC[C@@]2(COc3nc(N4CCCOCC4)c4cc(Cl)c(-c5ccc(F)c6sc(N)c(C#N)c56)c(F)c4n3)CC2(F)F)CC1 [compound 27, 2-amino-4-(6-chloro-2-(((R)-2,2-difluoro-1-(((1-methylcyclopropyl)a-mino)methyl)cyclopro-pyl)methoxy)-8-fluoro-4-(1,4-oxazepan-4-yl)quinazolin-7-yl)-7-fluorobenzo[b]thiophene-3-carbonitrile]
pIC50 (NRAS): < 4.96
pIC50 (HRAS): < 4.96
pIC50 (KRAS-G13D): 6.07
pIC50 (KRAS-G12D): 5.30
pIC50 (KRAS-G12V): 6.83
pIC50 [1]: 6.62

CC1(NC[C@@]2(COc3nc(N4CCCOCC4)c4cc(Cl)c(-c5ccc(F)c6sc(N)c(C#N)c56)c(F)c4n3)CC2(F)F)COC1 [compound 29, 2-amino-4-(6-chloro-2-(((R)-2,2-difluoro-1-(((3-methyloxetan-3-yl)amino)methyl)cyclo-propyl)methoxy)-8-fluoro-4-(1,4-oxazepan-4-yl)quinazolin-7-yl)-7-fluorobenzo[b]thiophene-3-carbonitrile]
pIC50 (NRAS): < 4.96
pIC50 (HRAS): < 4.96
pIC50 (KRAS-G13D): 6.03
pIC50 (KRAS-G12D): 5.63
pIC50 (KRAS-G12V): 6.56
pIC50 [1]: 6.41

N#Cc1c(N)sc2c(F)ccc(-c3c(Cl)cc4c(N5CCCOCC5)nc(OC[C@]5(CN6CCOCC6)CC5(F)F)nc4c3F)c12 [compound 31, 2-amino-4-(6-chloro-2-(((R)-2,2-difluoro-1-(morpholinomethyl)cy-clopropyl)methoxy)-8-fluoro-4-(1,4-oxazepan-4-yl)quinazolin-7-yl)-7-fluorobenzo[b]thiophene-3-carbonitrile]
pIC50 (NRAS): < 4.96
pIC50 (HRAS): < 4.96
pIC50 (KRAS-G13D): 6.13
pIC50 (KRAS-G12D): 5.60
pIC50 (KRAS-G12V): 6.82
pIC50 [1]: 5.93

N#Cc1c(N)sc2c(F)ccc(-c3c(Br)cc4c(N5CCCOCC5)nc(OC[C@@]56CCCN5C[C@H](F)C6)nc4c3F)c12 [compound 37, 2-amino-4-(6-bromo-8-fluoro-2-(((2R,7aS)-2-fluorotetrahydro-1H-pyrrolizin-7a(5H)-yl)methoxy)-4-(1,4-oxazepan-4-yl)quinazolin-7-yl)-7-fluorobenzo[b]thiophene-3-carbonitrile]
pIC50 (KRAS-G12D): 8.08
pIC50 (KRAS-G12V): 8.45
pIC50 [2]: 7.31
